According to patent publication US7407979B2, “Bioregulatory active ingredient combination” (BASF Aktiengesellschaft, priority 2001, dated 2008):

How the values were obtained:
[1] = system: Winter oilseed rape (cv. Pronto); assay: Shoot elongation in winter oilseed rape (Example 1); assay type: in vivo; details: treated Oct. 19, 2000; for Stage A1: Reduction / Stage A1: rel. length: rating A1 Oct. 26, 2000; for Stage A2: Reduction / Stage A2: rel. length: rating A2 Nov. 16, 2000
Protocol: The tank mixes employed in Example 1 are prepared by stirring an emulsion concentrate comprising 90 g/l metconazole, of the formula (II), and an aqueous concentrate comprising 600 g/l mepiquat chloride (MQC) using a magnetic stirrer.
Winter oilseed rape (cv. Pronto) was sown in autumn (Sep. 13, 2000) and treated approximately one month later (Oct. 19, 2000) in accordance with the information given in Table 1. A few weeks later, the shoot elongation and the root development were assessed (A1 on Oct. 26, 2000 and A2 on Nov. 16, 2000).

[2] = system: Winter oilseed rape (cv. Pronto); assay: Root growth and morphological parameters in winter oilseed rape (Example 2); assay type: in vivo; details: based on untreated control; for SPAD: green coloration
Protocol: The formulations employed in Example 2 are prepared by introducing an emulsion concentrate comprising 60 g/l metconazole, of the formula (II), and/or an aqueous concentrate comprising 460 g/l mepiquat chloride in suitable amounts. The combination of mepiquat chloride and metconazole is employed in the form of an aqueous SL readymix comprising 21 g/l metconazole, 300 g/l mepiquat chloride and 610 g/l further formulation auxiliaries.
Winter oilseed rape (cv. Pronto) was sown in autumn (Sep. 13, 2000) and treated approximately one month later (Oct. 19, 2000) in accordance with the information given in Table 2. Some of the plants were harvested in autumn on Dec. 07, 2000, while others were harvested in spring on Apr. 03, 2001 and the following morphological parameters were analyzed: plant length; shoot fresh and dry weight (drying: 24 h at 105° C.); total area of all leaves; SPAP (relative units of green coloration determined using a Minolta chlorophyll-measuring meter SPAP 502); root fresh and dry weight (drying: 24 h at 105° C.); storage root fresh weight; length, surface area and volume of the hair roots, and number of root tips (scanning and WinRhizo determination). The results, each of which is based on the untreated control, are compiled in Table 2, the values for the plants harvested in autumn being shown first and the values for the plants harvested in spring being shown second.

[3] = 28 g/ha, autumn harvest Dec. 07, 2000
[4] = 28 g/ha, spring harvest Apr. 03, 2001
[5] = 84 g/ha, autumn harvest Dec. 07, 2000
[6] = 84 g/ha, spring harvest Apr. 03, 2001
[7] = 400 g/ha, autumn harvest Dec. 07, 2000
[8] = 400 g/ha, spring harvest Apr. 03, 2001

SMILES: CC1(C)CCC(Cc2ccc(Cl)cc2)C1(O)Cn1cncn1 (centres unmarked) [Metconazole, metconazole]
- Stage A1: Reduction ([1]; 21 g/ha): 19%
- Stage A1: rel. length ([1]; 21 g/ha): 81
- Stage A2: Reduction ([1]; 21 g/ha): 39%
- Stage A2: rel. length ([1]; 21 g/ha): 61
- Hair root surface area [2, 3]: 116%
- Hair root volume [2, 3]: 125%
- Leaf surface area [2, 3]: 84%
- Number of root tips [2, 3]: 93%
- Plant height [2, 3]: 61%
- Root hair length [2, 3]: 107%
- Shoot dry weight [2, 3]: 85%
- Shoot fresh weight [2, 3]: 82%
- Storage root fresh weight [2, 3]: 94%
- Total root dry weight [2, 3]: 94%
- Total root fresh weight [2, 3]: 92%
- SPAD [2, 3]: 107
- Hair root surface area [2, 4]: 134%
- Hair root volume [2, 4]: 145%
- Leaf surface area [2, 4]: 106%
- Number of root tips [2, 4]: 112%
- Plant height [2, 4]: 91%
- Root hair length [2, 4]: 126%
- Shoot dry weight [2, 4]: 112%
- Shoot fresh weight [2, 4]: 122%
- Storage root fresh weight [2, 4]: 115%
- Total root dry weight [2, 4]: 128%
- Total root fresh weight [2, 4]: 115%
- SPAD [2, 4]: 103
- Hair root surface area [2, 5]: 97%
- Hair root volume [2, 5]: 101%
- Leaf surface area [2, 5]: 61%
- Number of root tips [2, 5]: 87%
- Plant height [2, 5]: 46%
- Root hair length [2, 5]: 94%
- Shoot dry weight [2, 5]: 67%
- Shoot fresh weight [2, 5]: 57%
- Storage root fresh weight [2, 5]: 74%
- Total root dry weight [2, 5]: 75%
- Total root fresh weight [2, 5]: 78%
- SPAD [2, 5]: 116
- Hair root surface area [2, 6]: 148%
- Hair root volume [2, 6]: 183%
- Leaf surface area [2, 6]: 127%
- Number of root tips [2, 6]: 116%
- Plant height [2, 6]: 86%
- Root hair length [2, 6]: 129%
- Shoot dry weight [2, 6]: 136%
- Shoot fresh weight [2, 6]: 150%
- Storage root fresh weight [2, 6]: 138%
- Total root dry weight [2, 6]: 161%
- Total root fresh weight [2, 6]: 150%
- SPAD [2, 6]: 104

SMILES: C[N+]1(C)CCCCC1.[Cl-] [MQC, N,N-dimethylpiperidinium chloride]
- Stage A1: Reduction ([1]; 400 g/ha): 0%
- Stage A1: rel. length ([1]; 400 g/ha): 100
- Stage A2: Reduction ([1]; 400 g/ha): 4%
- Stage A2: rel. length ([1]; 400 g/ha): 96
- Hair root surface area [2, 7]: 131%
- Hair root volume [2, 7]: 154%
- Leaf surface area [2, 7]: 116%
- Number of root tips [2, 7]: 94%
- Plant height [2, 7]: 96%
- Root hair length [2, 7]: 112%
- Shoot dry weight [2, 7]: 112%
- Shoot fresh weight [2, 7]: 111%
- Storage root fresh weight [2, 7]: 118%
- Total root dry weight [2, 7]: 120%
- Total root fresh weight [2, 7]: 123%
- SPAD [2, 7]: 102; 102
- Hair root surface area [2, 8]: 136%
- Hair root volume [2, 8]: 157%
- Leaf surface area [2, 8]: 103%
- Number of root tips [2, 8]: 123%
- Plant height [2, 8]: 93%
- Root hair length [2, 8]: 123%
- Shoot dry weight [2, 8]: 99%
- Shoot fresh weight [2, 8]: 114%
- Storage root fresh weight [2, 8]: 94%
- Total root dry weight [2, 8]: 107%
- Total root fresh weight [2, 8]: 112%
- SPAD [2, 8]: 102; 102
